Consider 9 compounds from patent US11434242B2, “Dopamine-b-hydroxylase inhibitors” (BIAL-PORTELA & Cª, S.A., priority 2017, dated 2022).

This assay has as its target T1, Dopamine beta hydroxylase (Homo sapiens, UniProt P09172).
T1 construct: 125 μl of plasma; tissue Instituto Português do Sangue Transplantação; host or cells: human plasma from healthy donors
T1 sequence (P09172 40-617 limits assumed): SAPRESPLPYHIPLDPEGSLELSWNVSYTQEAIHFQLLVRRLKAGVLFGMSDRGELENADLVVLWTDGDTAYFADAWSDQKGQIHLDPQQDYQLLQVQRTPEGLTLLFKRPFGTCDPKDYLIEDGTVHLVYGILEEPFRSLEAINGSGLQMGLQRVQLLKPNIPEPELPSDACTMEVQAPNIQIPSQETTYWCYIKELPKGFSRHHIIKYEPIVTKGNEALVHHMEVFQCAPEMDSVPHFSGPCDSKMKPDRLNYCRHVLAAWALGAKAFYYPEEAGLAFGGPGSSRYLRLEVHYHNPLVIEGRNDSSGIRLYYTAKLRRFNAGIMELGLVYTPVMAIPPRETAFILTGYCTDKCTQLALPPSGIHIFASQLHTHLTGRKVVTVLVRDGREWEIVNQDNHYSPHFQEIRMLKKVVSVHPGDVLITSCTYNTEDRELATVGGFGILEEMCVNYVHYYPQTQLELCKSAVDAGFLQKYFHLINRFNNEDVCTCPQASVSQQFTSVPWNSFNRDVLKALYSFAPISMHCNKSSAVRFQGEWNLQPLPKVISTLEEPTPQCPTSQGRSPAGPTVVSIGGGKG
Description: Dopamine beta hydroxylase activity in human plasma. The class given is biochemical. The settings on record: for Plasma (0.01 μM), activity in % of control: inhibitor 0.01 μM; for Plasma (0.1 μM), activity in % of control: inhibitor 0.1 μM; for Plasma (1 μM), activity in % of control: inhibitor 1 μM. On the procedure: Furthermore, the ability of a compound to inhibit DβH activity may be assessed in human plasma using the following assay. […]. Dopamine beta hydroxylase activity in human plasma was measured by the method of Nagatsu and Udenfriend (Nagatsu, T. and Udenfriend, S. “Photometric assay of dopamine-μ-hydroxylase activity in human blood.” Clin. Chem. 18(9) 980-983, 1972) with minor modifications. Catalase, N-ethylmaleimide, tyramine, disodium fumarate, pargyline, sodium acetate, ascorbic acid, copper sulfate and octopamine were obtained from Sigma Chemical Co., St. Louis, Mo. 63178. Human plasma samples were obtained from healthy donors (Instituto Português do Sangue Transplantação, Centro Sangue Transplantação, Porto, Portugal). From date of collection, plasma was stored at −80° C. until use. Test compounds were initially prepared in dimethyl sulfoxide at a concentration of 10 mM and diluted in dimethyl sulfoxide to the required concentrations. Test compounds were further diluted in ultrapure water to a concentration 20-fold to that of the final concentration to be tested. Final concentrations of test compounds were 10, 100 and 1000 nM. The various reagents used to make up the incubation buffer were premixed and consisted of the following components: sodium acetate buffer (1 M, pH 5.0, 18 ml), sodium fumarate (0.2 M, 4.5 ml), ascorbic acid (0.2 M, 4.5 ml, freshly prepared), pargyline (20 mM, freshly prepared, 4.5 ml), N-ethylmaleimide (0.2 M, 4.5 ml), catalase (10 000 U/ml, 9 ml), copper sulfate (20 μM, 4.5 ml) and 4.5 ultrapure water. The standard incubation mixture (total volume, 950 μl) contained: 50 μL of compound or vehicle (dimethyl sulfoxide 2%); 700 μL of incubation buffer; 125 μl of plasma (or saline for blank reaction or standard curve); 75 μl of saline. The reaction mixture was placed in water bath, shaking at 37° C. and pre-incubated for 10 minutes. Tyramine (0.5 M) was added and incubation proceeded for 45 minutes. The reaction contents were exposed to air. A sample of enzyme preparation (with 125 μl of plasma) that had been added perchloric acid 2 M at the end of the pre-incubation period was used as blank. A blank for each of the tested compounds was used. For octopamine standard curve, perchloric acid 2 M was replaced by increasing concentrations of octopamine prepared in perchloric acid 2 M (0.5, 1, 2.5, 5, 7.5, 10, 15, 20 μg/ml, final concentration). The incubation was stopped by adding 200 μl of 2 M molar perchloric acid, and the mixture was centrifuged at 9000 g for 5 min. The supernatant fluid (800 μL) was transferred to a column (SPE cartridge ISOLUTE SCX-3, 100 mg) and centrifuged at 150 g for 2 min. The column was washed two more times with 0.5 ml of ultrapure water by centrifuging at 150 g for 2 min. The adsorbed octopamine was eluted twice with 0.3 ml of 4 M ammonium hydroxide by centrifuging at 150 g for 2 min. Octopamine in the eluate was then converted to p-hydroxybenzaldehyde by adding 200 μl of sodium periodate (2%) and incubating for 6 min. Excess periodate was than reduced by adding 200 μl of sodium metabisulfite (10%). Absorbance was measured at […] in a 96-well plate by use of a SpectraMAX plus 384 (Molecular Devices) with software SOFTmax® PRO Software 5.3 spectrophotometer. Absorbance was linear with octopamine concentration from 0.5 to 20 μg/ml. Dopamine beta hydroxylase activity is determined as nmol of octopamine formed/ml of plasma/hour and effect of compounds is presented as % control.
Results are reported in the table below as activity in % of control at the inhibitor concentration tested.

On to `Cn1c(CC(=O)N2CCOCC2)c2n(c1=S)C[C@@H](c1c(F)ccc(F)c1F)C2` [Example 237, (R)-2-(2-methyl-3-thioxo-6-(2,3,6-trifluorophenyl)-2,5,6,7-tetrahydro-3H-pyrrolo[1,2-c]imidazol-1-yl)-1-morpholinoethan-1-one], for which the “Plasma (0.01 μM), activity in % of control” value is 92.9 % of control and the “Plasma (0.1 μM), activity in % of control” value was 61.6 % of control.
Turning to `CS(=O)(=O)NC(=O)Cc1[nH]c(=S)n2c1C[C@H](c1c(F)c(F)cc(F)c1F)C2` [Example 23, (R)—N-(methylsulfonyl)-2-(6-(2,3,5,6-tetrafluorophenyl)-3-thioxo-3,5,6,7-tetrahydro-2H-pyrrolo[1,2-c]imidazol-1-yl)acetamide], the “Plasma (0.1 μM), activity in % of control” value is on record as 56.6 % of control and the “Plasma (1 μM), activity in % of control” value is 8.8 % of control.
`CN(C(=O)Cc1c2n(c(=S)n1C)C[C@@H](c1c(F)c(F)cc(F)c1F)C2)C1COC1` [Example 398, (R)—N-methyl-2-(2-methyl-6-(2,3,5,6-tetrafluorophenyl)-3-thioxo-2,5,6,7-tetrahydro-3H-pyrrolo[1,2-c]imidazol-1-yl)-N-(oxetan-3-yl)acetamide]: the “Plasma (0.01 μM), activity in % of control” value is listed as 94.3 % of control and the “Plasma (0.1 μM), activity in % of control” value was 23.0 % of control.
Taken in the same sequence, the figures for `[2H]C([2H])([2H])n1c(CC(=O)N2CCOCC2)c2n(c1=S)C[C@H](c1c(F)ccc(Cl)c1F)C2` [Example 460, (S)-2-(6-(3-chloro-2,6-difluorophenyl)-2-(methyl-d)-3-thioxo-2,5,6,7-tetrahydro-3H-pyrrolo[1,2-c]imidazol-1-yl)-1-morpholinoethan-1-one] were 43.9 % of control and 18.2 % of control.
As to `Cn1c(CC(=O)NCC2CCCO2)c2n(c1=S)C[C@@H](c1c(F)c(F)cc(F)c1F)C2` (stereo in doubt) [Example 391, 2-((R)-2-methyl-6-(2,3,5,6-tetrafluorophenyl)-3-thioxo-2,5,6,7-tetrahydro-3H-pyrrolo[1,2-c]imidazol-1-yl)-N—(((R)-tetrahydrofuran-2-yl)methyl)acetamide], the “Plasma (0.01 μM), activity in % of control” value was 83.8 % of control and the “Plasma (0.1 μM), activity in % of control” value is listed as 40.7 % of control.
Turning to `N[C@@H](CNC(=O)Cc1[nH]c(=S)n2c1C[C@H](c1c(F)c(F)cc(F)c1F)C2)C(=O)O` [Example 31, (S)-2-amino-3-(2-((R)-6-(2,3,5,6-tetrafluorophenyl)-3-thioxo-3,5,6,7-tetrahydro-2H-pyrrolo[1,2-c]imidazol-1-yl)acetamido)propanoic acid], the “Plasma (0.1 μM), activity in % of control” value is given as 67.7 % of control and the “Plasma (1 μM), activity in % of control” value is listed as 16.7 % of control.
`Cn1c(CC(=O)N2CCC[C@H]2CO)c2n(c1=S)C[C@H](c1c(F)ccc(Br)c1F)C2` [Example 241, 2-((S)-6-(3-bromo-2,6-difluorophenyl)-2-methyl-3-thioxo-2,5,6,7-tetrahydro-3H-pyrrolo[1,2-c]imidazol-1-yl)-1-((S)-2-(hydroxymethyl)pyrrolidin-1-yl)ethan-1-one]: the “Plasma (0.01 μM), activity in % of control” value is listed as 51.7 % of control and the “Plasma (0.1 μM), activity in % of control” value was 8.9 % of control.
Regarding `CC(C)NC(=O)Cc1[nH]c(=S)n2c1C[C@H](c1c(F)ccc(Br)c1F)C2` [Example 133, (R)-2-(6-(3-bromo-2,6-difluorophenyl)-3-thioxo-2,5,6,7-tetrahydro-3H-pyrrolo[1,2-c]imidazol-1-yl)-N-isopropylacetamide], the “Plasma (0.01 μM), activity in % of control” value is 95.9 % of control and the “Plasma (0.1 μM), activity in % of control” value is 82.4 % of control.
`O=C(Cc1[nH]c(=S)n2c1C[C@@H](c1c(F)ccc(Br)c1F)C2)NC1CCC1` [Example 102, (S)-2-(6-(3-bromo-2,6-difluorophenyl)-3-thioxo-2,5,6,7-tetrahydro-3H-pyrrolo[1,2-c]imidazol-1-yl)-N-cyclobutylacetamide]: the “Plasma (0.1 μM), activity in % of control” value is 20.3 % of control and the “Plasma (1 μM), activity in % of control” value is on record as 1.7 % of control.
